Laboratory results reported in PMC8330100, “Similarities and differences in the localization, trafficking, and function of P-glycoprotein in MDR1-EGFP-transduced rat versus human brain capillary endothelial cell lines” (Fluids and Barriers of the CNS, 2021).

Tests used:
[1] = Mannitol permeability assay (basolateral to apical) across hCMEC/D3 monolayers; format: in vitro ADME, human; conditions: human
Experimental: (§1) Incubation was performed under cell culture conditions (37 °C, 5% CO2, humidified atmosphere) on a horizontal shaker (55 rpm). […] Basolateral volume was adjusted after each sampling to compensate for changes in the hydrostatic pressure. TEER measurements before and after the assay were carried out to confirm barrier integrity. The apparent permeability coefficients (Papp) in nm per second were calculated according to Artursson. Each experiment was performed in at least three replicates. As was described for the TEER measurements above, mannitol fluxes were compared in the ThinCert®, Transwell®, and Sarstedt-TC-insert systems, using 6-well and 12-well multiwell plates and different membrane materials. Based on this comparison, all subsequent experiments were performed with ThinCert® cell culture inserts [12-well, 0.4 µm pore size, polyethylene terephthalate (PET)] from Greiner Bio-One.

hCMEC/D3 cell monolayers = experiment: as above; format: in vitro ADME, human
Experimental: as §1

[2] = Mannitol permeability assay (basolateral to apical) across RBE4 monolayers; format: in vitro ADME, rat; conditions: rat
Experimental: as §1

RBE4 cell monolayers = experiment: as above; format: in vitro ADME, rat
Experimental: as §1

[3] = Paracellular mannitol flux across LLC-MDR1 monolayers; format: in vitro ADME, porcine; conditions: pig, LLC-PK1, corresponding to the flux per hour, read-out: mannitol permeability
LLC-MDR1 cell monolayers = experiment: as above; format: in vitro ADME, porcine
Pgp in hCMEC/D3-WT cells = target: T1, Pgp in hCMEC/D3-WT cells (Homo sapiens, UniProt P08183); experiment: Rhodamine 123 uptake/accumulation assay, hCMEC/D3-WT cells; format: cell-based; conditions: tariquidar 0.5 µM
T1 construct: endogenous in cells; host or cells: hCMEC/D3-WT
Experimental: The functionality of Pgp in RBE4-WT, RBE4-MDR1-EGFP, hCMEC/D3-WT, hCMEC/D3-MDR1-EGFP cells, and primary rBCECs was analyzed by measuring the uptake of the fluorescent Pgp substrate Rho123 (Sigma-Aldrich). Cells were grown on 6-well plates and cultured for seven days in the presence or absence of doxycycline (1 µg/mL, Biochrom). […] Afterward, Rho123 (5 µM, dissolved in ethanol) was added and cells were incubated for another two hours. Rho123 transport was terminated by washing the cells twice with ice-cold PBS. […] Rho123 uptake was obtained for each condition in triplicates and calculated as absolute fluorescence per mg protein. Additionally, Pgp functionality was expressed as multidrug resistance activity factor (MAF) as described by Huber et al. [40]. This factor describes Pgp efflux activity based on differences in intracellular Rho123 accumulation in cells after Pgp inhibition compared to cells with active Pgp-mediated efflux. Thus, higher MAF values correlate with increased Pgp activity. […] MAF values for Pgp were calculated according to Huber et al. 2012 utilizing the following equation: MAF (%) = 100 · (MFITQ − MFI0)/(MFITQ) where MFITQ and MFI0 represent the mean fluorescence intensity of intracellular Rho123 in tariquidar (TQ)-treated and non-treated cells, respectively.

[4] = target: T2, Pgp in RBE4-MDR1-EGFP cells (Homo sapiens, UniProt P08183); experiment: Rhodamine 123 uptake/accumulation assay, RBE4-MDR1-EGFP cells; format: cell-based, rat; conditions: RBE4-MDR1-EGFP in the presence of doxycycline; tariquidar 0.5 µM
T2 construct: expressed in transfected cells; host or cells: RBE4 (rat BCEC line), lentiviral transduction, doxycycline-inducible
Experimental: Piet Borst (The Netherlands Cancer Institute, Amsterdam, The Netherlands) as template. The linker sequence in the vector fusing EGFP and MDR1 consists of 36 bp ([…]). hCMEC/D3-WT, RBE4-WT, and hCMEC/D3-MDR1-EGFP cell lines were cultivated as previously described. The same culture conditions were used for the newly prepared RBE4-MDR1-EGFP cell line. As described previously, hydrocortisone (1.4 µM) was added to the culture medium to enhance the expression and functionality of Pgp and transendothelial resistance. All endothelial cell lines were grown on rat-tail collagen I (60 µg/mL, Gibco) coated 100 mm cultures dishes or permeable membrane supports at 37 °C and 5% CO2. Pgp-EGFP protein expression in MDR1-EGFP transduced cells was induced by cell cultivation in medium containing […] doxycycline. Expression of Pgp-EGFP was regularly verified by observing the cells with an inverted fluorescence microscope. Doxycycline supplementation of the medium was maintained during the whole culturing period of Pgp-EGFP expressing cells. For experiments, hCMEC/D3 and RBE4 cells were seeded in a density of 50,000 cells/cm^2. Immortalized MDR1 transfected porcine kidney LLC-PK1 (LLC-MDR1) cells, which were used as a reference standard for vectorial transport experiments, were kindly provided by Prof. Piet Borst. […]

Pgp in RBE4-WT cells = experiment: Rhodamine 123 uptake/accumulation assay, RBE4-WT cells; format: cell-based, rat; conditions: tariquidar 0.5 µM
Experimental: The functionality of Pgp in RBE4-WT, RBE4-MDR1-EGFP, hCMEC/D3-WT, hCMEC/D3-MDR1-EGFP cells, and primary rBCECs was analyzed by measuring the uptake of the fluorescent Pgp substrate Rho123 (Sigma-Aldrich). Cells were grown on 6-well plates and cultured for seven days in the presence or absence of doxycycline (1 µg/mL, Biochrom). […] Afterward, Rho123 (5 µM, dissolved in ethanol) was added and cells were incubated for another two hours. Rho123 transport was terminated by washing the cells twice with ice-cold PBS. Intracellular Rho123 concentration was determined by cell lysis in standard lysis buffer (25 mM Tris, 50 mM NaCl, 0.5% (w/v) sodium deoxycholate, 0.5% (w/v) Triton X-100) and measurement of fluorescence intensity with the FLUOstar OPTIMA (ex.: 485 nm, em.: 520 nm; BMG Labtech). Protein concentrations were determined using a BCA assay kit (Thermo Fisher Scientific). Rho123 uptake was obtained for each condition in triplicates and calculated as absolute fluorescence per mg protein. Additionally, Pgp functionality was expressed as multidrug resistance activity factor (MAF) as described by Huber et al.. This factor describes Pgp efflux activity based on differences in intracellular Rho123 accumulation in cells after Pgp inhibition compared to cells with active Pgp-mediated efflux. Thus, higher MAF values correlate with increased Pgp activity. For better comparison, differences in Rho123 accumulation are normalized to intracellular Rho123 levels in inhibitor-treated cells. MAF values for Pgp were calculated according to Huber et al. 2012 utilizing the following equation: MAF (%) = 100 · (MFITQ − MFI0)/(MFITQ) where MFITQ and MFI0 represent the mean fluorescence intensity of intracellular Rho123 in tariquidar (TQ)-treated and non-treated cells, respectively.

Pgp in primary rBCECs = experiment: Rhodamine 123 uptake/accumulation assay, primary rBCECs; format: cell-based, rat; conditions: tariquidar 0.5 µM, P < 0.0001
Text: The RBE4 and hCMEC/D3 cell lines used here are immortalized, which has the advantage that these cells are stable for several passages and may yield a large number of endothelial cells with the same genetic and phenotypical characteristics. The immortalization status, however, causes several alterations as compared to the native original cell type, including low junctional tightness of cell monolayers and reduced expression of efflux transporters such as Pgp. Therefore, for comparison with the MDR1-EGFP transduced rat RBE4 cells, experiments were also performed with primary cultured rat brain capillary endothelial cells (rBCECs). As described by us previously, rBCECs were prepared following a protocol by Régina et al. and Perrière et al. from 2 to 3 weeks old Wistar rats (obtained from Charles River; Sulzfeld, Germany). All animals were treated according to protocols evaluated and approved by the ethical committee of our university. In short, meninges were removed from cerebral cortices in phosphate-buffered saline (PBS) with 1% penicillin (100 U/mL)/streptomycin (100 μg/mL) (Biochrom AG) on ice. Subsequently, cortices were mechanically dissociated with scalpels. […]
The functionality of Pgp in RBE4-WT, RBE4-MDR1-EGFP, hCMEC/D3-WT, hCMEC/D3-MDR1-EGFP cells, and primary rBCECs was analyzed by measuring the uptake of the fluorescent Pgp substrate Rho123 (Sigma-Aldrich). […] Intracellular Rho123 concentration was determined by cell lysis in standard lysis buffer (25 mM Tris, 50 mM NaCl, 0.5% (w/v) sodium deoxycholate, 0.5% (w/v) Triton X-100) and measurement of fluorescence intensity with the FLUOstar OPTIMA (ex.: 485 nm, em.: 520 nm; BMG Labtech). Protein concentrations were determined using a BCA assay kit (Thermo Fisher Scientific). Rho123 uptake was obtained for each condition in triplicates and calculated as absolute fluorescence per mg protein. Additionally, Pgp functionality was expressed as multidrug resistance activity factor (MAF) as described by Huber et al.. […]

[5] = hCMEC/D3-MDR1 + dox, 7 days after seeding, basolateral to apical, ThinCert 12-well, 0.4 µm, PET
[6] = hCMEC/D3-WT, 12-well, Corning #3460, PET, 4·10^6 pores/cm²
[7] = hCMEC/D3-WT, 7 days after seeding, basolateral to apical, ThinCert (Greiner #665641) 12-well, 0.4 µm, PET, 2·10^6 pores/cm²
[8] = hCMEC/D3-WT, 6-well, Corning #3412, PC, 1·10^8 pores/cm²
[9] = RBE4-MDR1 + dox, 7 days after seeding, basolateral to apical, ThinCert 12-well, 0.4 µm, PET
[10] = RBE4-WT, 6-well, Corning #3412, PC, 1·10^8 pores/cm²
[11] = RBE4-WT, 12-well, Corning #3460, PET, 4·10^6 pores/cm²
[12] = RBE4-WT, 12-well, Sarstedt #83.3931.040, PET, 1·10^8 pores/cm²
[13] = RBE4-WT, 7 days after seeding, basolateral to apical, ThinCert (Greiner #665641) 12-well, 0.4 µm, PET, 2·10^6 pores/cm²

T2 sequence (P08183 with tags, fused parts or gaps): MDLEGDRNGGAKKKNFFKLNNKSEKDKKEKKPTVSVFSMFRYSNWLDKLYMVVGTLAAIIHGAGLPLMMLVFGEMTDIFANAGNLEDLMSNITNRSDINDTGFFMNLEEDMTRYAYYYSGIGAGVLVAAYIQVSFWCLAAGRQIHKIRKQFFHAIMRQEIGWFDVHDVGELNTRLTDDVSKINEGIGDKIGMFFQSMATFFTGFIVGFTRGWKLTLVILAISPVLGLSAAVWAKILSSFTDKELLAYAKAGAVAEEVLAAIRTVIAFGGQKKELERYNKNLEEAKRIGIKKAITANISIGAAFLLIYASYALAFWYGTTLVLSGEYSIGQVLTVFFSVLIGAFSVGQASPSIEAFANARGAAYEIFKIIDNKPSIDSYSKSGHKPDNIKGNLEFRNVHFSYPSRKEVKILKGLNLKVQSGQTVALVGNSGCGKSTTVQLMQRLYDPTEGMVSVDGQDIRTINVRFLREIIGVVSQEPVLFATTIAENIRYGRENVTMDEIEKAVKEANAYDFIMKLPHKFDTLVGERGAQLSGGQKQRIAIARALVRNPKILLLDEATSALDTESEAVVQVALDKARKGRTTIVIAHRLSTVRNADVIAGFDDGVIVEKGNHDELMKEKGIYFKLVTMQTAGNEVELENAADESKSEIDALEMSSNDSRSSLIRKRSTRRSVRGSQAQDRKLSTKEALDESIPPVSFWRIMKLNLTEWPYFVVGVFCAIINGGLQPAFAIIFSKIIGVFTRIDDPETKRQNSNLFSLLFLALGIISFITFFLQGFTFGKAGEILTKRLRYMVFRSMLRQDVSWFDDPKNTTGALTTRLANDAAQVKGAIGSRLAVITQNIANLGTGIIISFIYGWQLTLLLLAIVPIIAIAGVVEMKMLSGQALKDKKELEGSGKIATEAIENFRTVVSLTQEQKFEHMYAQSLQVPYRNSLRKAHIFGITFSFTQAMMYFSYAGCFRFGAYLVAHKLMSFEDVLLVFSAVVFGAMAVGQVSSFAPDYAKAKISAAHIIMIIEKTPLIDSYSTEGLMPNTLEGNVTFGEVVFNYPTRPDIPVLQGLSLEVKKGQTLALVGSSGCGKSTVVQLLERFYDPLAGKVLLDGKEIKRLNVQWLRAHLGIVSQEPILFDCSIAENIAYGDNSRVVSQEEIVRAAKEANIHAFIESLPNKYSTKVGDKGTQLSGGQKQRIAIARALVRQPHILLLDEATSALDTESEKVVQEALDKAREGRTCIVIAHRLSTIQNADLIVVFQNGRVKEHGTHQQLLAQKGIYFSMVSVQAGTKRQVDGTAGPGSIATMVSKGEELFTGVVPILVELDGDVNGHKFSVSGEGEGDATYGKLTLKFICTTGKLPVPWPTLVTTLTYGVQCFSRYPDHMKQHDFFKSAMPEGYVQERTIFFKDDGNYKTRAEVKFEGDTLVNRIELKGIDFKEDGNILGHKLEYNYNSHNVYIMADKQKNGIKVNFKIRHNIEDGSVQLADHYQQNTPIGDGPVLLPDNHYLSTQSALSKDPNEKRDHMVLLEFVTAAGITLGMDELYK
T1 sequence (P08183 whole entry): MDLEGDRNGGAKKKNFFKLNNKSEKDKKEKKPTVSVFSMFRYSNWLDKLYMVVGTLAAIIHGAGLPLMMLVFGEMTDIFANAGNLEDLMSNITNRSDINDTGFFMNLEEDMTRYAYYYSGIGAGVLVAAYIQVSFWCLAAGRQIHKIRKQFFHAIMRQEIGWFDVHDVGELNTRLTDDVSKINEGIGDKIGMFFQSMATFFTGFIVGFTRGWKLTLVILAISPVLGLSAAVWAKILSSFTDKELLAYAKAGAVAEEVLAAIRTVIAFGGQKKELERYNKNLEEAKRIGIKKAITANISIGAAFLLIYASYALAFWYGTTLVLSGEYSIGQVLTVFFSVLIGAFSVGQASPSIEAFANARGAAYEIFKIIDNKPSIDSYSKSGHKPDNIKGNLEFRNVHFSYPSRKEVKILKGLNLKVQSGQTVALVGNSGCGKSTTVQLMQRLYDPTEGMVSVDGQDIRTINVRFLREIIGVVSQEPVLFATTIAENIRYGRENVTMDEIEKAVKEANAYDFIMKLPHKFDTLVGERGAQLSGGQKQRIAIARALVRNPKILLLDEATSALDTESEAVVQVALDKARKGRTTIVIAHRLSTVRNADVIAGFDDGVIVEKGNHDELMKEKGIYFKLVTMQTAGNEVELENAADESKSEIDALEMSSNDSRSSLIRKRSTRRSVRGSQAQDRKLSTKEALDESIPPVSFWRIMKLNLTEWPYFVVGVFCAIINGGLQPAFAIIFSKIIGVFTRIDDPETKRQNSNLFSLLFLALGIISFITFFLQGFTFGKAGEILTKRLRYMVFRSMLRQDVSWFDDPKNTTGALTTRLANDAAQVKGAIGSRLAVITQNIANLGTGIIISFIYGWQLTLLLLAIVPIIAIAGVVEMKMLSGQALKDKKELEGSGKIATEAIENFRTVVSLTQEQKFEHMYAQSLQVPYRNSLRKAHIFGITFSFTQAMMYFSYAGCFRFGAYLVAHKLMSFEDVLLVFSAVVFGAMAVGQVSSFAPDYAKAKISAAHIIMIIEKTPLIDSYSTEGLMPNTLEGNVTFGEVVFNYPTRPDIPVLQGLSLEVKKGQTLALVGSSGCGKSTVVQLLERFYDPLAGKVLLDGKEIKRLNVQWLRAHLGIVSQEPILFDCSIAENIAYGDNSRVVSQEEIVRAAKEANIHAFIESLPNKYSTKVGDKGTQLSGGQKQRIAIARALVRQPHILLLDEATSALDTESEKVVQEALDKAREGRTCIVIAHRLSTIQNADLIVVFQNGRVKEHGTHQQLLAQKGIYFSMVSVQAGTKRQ

With `OC[C@@H](O)[C@@H](O)[C@H](O)[C@H](O)CO` [Mannitol, D-mannitol] the Papp at 180 min, 1.85 kBq/mL [1, 5] was 5.67 ± 0.252 ×10⁻⁶ cm/s, the Papp at 180 min, 1.85 kBq/mL [1, 6] was 13.5 ± 0.372 ×10⁻⁶ cm/s and the Papp at 180 min, 1.85 kBq/mL ([1]; hCMEC/D3-WT, 12-well, Sarstedt #83.3931.040, PET, 1·10^8 pores/cm²) was 19.8 ± 0.489 ×10⁻⁶ cm/s. For the same molecule, the Papp at 180 min, 1.85 kBq/mL [1, 7] was 5.38 ± 0.432 ×10⁻⁶ cm/s, the Papp B→A at 180 min, 1.85 kBq/mL [1, 8] was 10 ×10⁻⁶ cm/s and the Mannitol permeability (hCMEC/D3 cell monolayers; [5]) was 3.81 ± 0.11 %/h. It also gave a Mannitol permeability (hCMEC/D3 cell monolayers; [8]) of 14.76 ± 1.01 %/h, a Mannitol permeability (hCMEC/D3 cell monolayers; [6]) of 11.17 ± 0.36 %/h and a Mannitol permeability (hCMEC/D3 cell monolayers; [7]) of 3.71 ± 0.13 %/h. It also gave a Papp at 180 min, 1.85 kBq/mL [2, 9] of 6.07 ± 0.159 ×10⁻⁶ cm/s, a Papp at 180 min, 1.85 kBq/mL [2, 10] of 11.3 ± 1.18 ×10⁻⁶ cm/s and a Papp at 180 min, 1.85 kBq/mL [2, 11] of 15.4 ± 0.215 ×10⁻⁶ cm/s. It also gave a Papp at 180 min, 1.85 kBq/mL [2, 12] of 21 ± 0.352 ×10⁻⁶ cm/s, a Papp at 180 min, 1.85 kBq/mL [2, 13] of 5.96 ± 0.407 ×10⁻⁶ cm/s and a Mannitol permeability (RBE4 cell monolayers; [9]) of 4.30 ± 0.22 %/h. It also gave a Mannitol permeability (RBE4 cell monolayers; [10]) of 13.62 ± 0.80 %/h, a Mannitol permeability (RBE4 cell monolayers; [11]) of 11.15 ± 0.24 %/h and a Mannitol permeability (RBE4 cell monolayers; [12]) of 19.18 ± 0.13 %/h. The Mannitol permeability (RBE4 cell monolayers; [13]) was 4.20 ± 0.30 %/h, the Papp at 180 min, 1.85 kBq/mL [3] was under 1.2 ×10⁻⁶ cm/s and the paracellular mannitol flux (LLC-MDR1 cell monolayers) was “less than 1 % of mannitol diffusion per hour”.
With `COc1cc2c(cc1OC)CN(CCc1ccc(NC(=O)c3cc(OC)c(OC)cc3NC(=O)c3cnc4ccccc4c3)cc1)CC2` [tariquidar] the “effect of Pgp inhibitor on accumulation of Rho123” value (Pgp in hCMEC/D3-WT cells) was “significantly increased”, the “effect of Pgp inhibitor on increased Pgp-mediated Rho123 efflux” value [4] was “could be inhibited” and the “effect of Pgp inhibitor on accumulation of Rho123” value (Pgp in RBE4-WT cells) was “significantly increased”. The “effect of Pgp inhibitor in Rho123 uptake assay” value (Pgp in primary rBCECs) was “significant effect”.
